Read-outs that look alike come from different tables or passages of the source.
Experiments:
[1] = mouse, in vivo
Cyp-p450 3A4 = Cyp-p450 3A4 (Homo sapiens, UniProt P08684)
in vitro [2] = conditions: African green monkey
EBOV (Mayinga) = test: microbe, parasite or virus in culture; type: cell-based, Ebola virus; conditions: for EC50: Zaire ebolavirus, Vero
in vitro [3] = conditions: mouse
Cyp-p450 1A2 = Cyp-p450 1A2 (Homo sapiens, UniProt P05177)
in vitro [4] = conditions: African green monkey, Cytotox CC50
[5] = system: SUDV (glycoprotein, VSV pseudotype); test: microbe, parasite or virus in culture; type: cell-based, Sudan ebolavirus; conditions: read-out: EC50 Pseudotype Assays SUDV
hERG ion channel = hERG ion channel (Homo sapiens, UniProt Q12809); test: biochemical
[6] = system: EBOV_FL: full-length Ebola Zaire GP (VSV pseudotype); test: microbe, parasite or virus in culture; type: cell-based, Zaire ebolavirus; conditions: read-out: EC50 Pseudotype Assays EBOV_FL
Cyp-p450 2B6 = Cyp-p450 2B6 (Homo sapiens, UniProt P20813)
Cyp-p450 2D6 = Cyp-p450 2D6 (Homo sapiens, UniProt P10635)
[7] = system: VSV (native full-length glycoprotein); test: microbe, parasite or virus in culture; type: cell-based; conditions: Vesicular stomatitis virus, Vero, read-out: EC50 Pseudotype Assays VSV
Cyp-p450 2C19 = Cyp-p450 2C19 (Homo sapiens, UniProt P33261)
physchem = conditions: pH 7, kinetic from dmso stock
in vitro [8] = conditions: human, Caco-2
Cyp-p450 2C9 = Cyp-p450 2C9 (Homo sapiens, UniProt P11712)
[9] = system: EBOV (mucin-deleted glycoprotein, VSV pseudotype); test: microbe, parasite or virus in culture; type: cell-based, Zaire ebolavirus; conditions: read-out: EC50 Pseudotype Assays EBOV
[10] = system: MARV (full-length glycoprotein, VSV pseudotype); test: microbe, parasite or virus in culture; type: cell-based, Marburg marburgvirus; conditions: read-out: EC50 Pseudotype Assays MARV
in vivo = conditions: male, CD-1, mouse
[11] = pH 7
P-gp = P-gp (Homo sapiens, UniProt P08183)
in vitro [12] = conditions: human
[13] = system: BDBV (mucin-deleted glycoprotein, VSV pseudotype); test: microbe, parasite or virus in culture; type: cell-based, Bundibugyo ebolavirus; conditions: read-out: EC50 Pseudotype Assays BDBV
Vero cells = conditions: African green monkey
Ebola Zaire [14] = test: microbe, parasite or virus in culture; conditions: Zaire ebolavirus, read-out: Ebola Zaire EC50
Ebola Zaire [15] = system: Ebola Zaire
Ebola Zaire [16] = test: microbe, parasite or virus in culture; conditions: Zaire ebolavirus, read-out: Ebola Zaire EC90
[17] = microsomes, 1 h
Ebola Zaire [18] = test: microbe, parasite or virus in culture; conditions: Zaire ebolavirus, HeLa, read-out: Ebola Zaire EC50
Ebola Zaire [19] = system: Ebola Zaire; remark: listed apart in the source
[20] = microsomes, 1 h; remark: listed apart in the source
Sudan Gulu [21] = test: organism not typed; conditions: HeLa, read-out: Sudan Gulu EC50
[22] = microsomes, 1 h; remark: listed apart in the source
Ebola Zaire [23] = system: Ebola Zaire; remark: listed apart in the source
Sudan Gulu [24] = system: Sudan Gulu
Sudan Gulu [25] = test: organism not typed; conditions: read-out: Sudan Gulu EC50
[26] = microsomes, 1 h; remark: listed apart in the source
Sudan Gulu [27] = system: Sudan Gulu; remark: listed apart in the source
Sudan Gulu [28] = test: organism not typed; conditions: read-out: Sudan Gulu EC50; remark: listed apart in the source
native EBOV virus = conditions: read-out: published EC50 against native EBOV virus; cited from earlier work
[29] = in vivo, po, 150 mg/kg; cited from earlier work
[30] = human, in vivo; cited from earlier work
Ebola virus infection = conditions: human, in vivo; cited from earlier work
[31] = Vesicular stomatitis virus, Vero, 24 h

Chain of P-gp (P08183 whole entry): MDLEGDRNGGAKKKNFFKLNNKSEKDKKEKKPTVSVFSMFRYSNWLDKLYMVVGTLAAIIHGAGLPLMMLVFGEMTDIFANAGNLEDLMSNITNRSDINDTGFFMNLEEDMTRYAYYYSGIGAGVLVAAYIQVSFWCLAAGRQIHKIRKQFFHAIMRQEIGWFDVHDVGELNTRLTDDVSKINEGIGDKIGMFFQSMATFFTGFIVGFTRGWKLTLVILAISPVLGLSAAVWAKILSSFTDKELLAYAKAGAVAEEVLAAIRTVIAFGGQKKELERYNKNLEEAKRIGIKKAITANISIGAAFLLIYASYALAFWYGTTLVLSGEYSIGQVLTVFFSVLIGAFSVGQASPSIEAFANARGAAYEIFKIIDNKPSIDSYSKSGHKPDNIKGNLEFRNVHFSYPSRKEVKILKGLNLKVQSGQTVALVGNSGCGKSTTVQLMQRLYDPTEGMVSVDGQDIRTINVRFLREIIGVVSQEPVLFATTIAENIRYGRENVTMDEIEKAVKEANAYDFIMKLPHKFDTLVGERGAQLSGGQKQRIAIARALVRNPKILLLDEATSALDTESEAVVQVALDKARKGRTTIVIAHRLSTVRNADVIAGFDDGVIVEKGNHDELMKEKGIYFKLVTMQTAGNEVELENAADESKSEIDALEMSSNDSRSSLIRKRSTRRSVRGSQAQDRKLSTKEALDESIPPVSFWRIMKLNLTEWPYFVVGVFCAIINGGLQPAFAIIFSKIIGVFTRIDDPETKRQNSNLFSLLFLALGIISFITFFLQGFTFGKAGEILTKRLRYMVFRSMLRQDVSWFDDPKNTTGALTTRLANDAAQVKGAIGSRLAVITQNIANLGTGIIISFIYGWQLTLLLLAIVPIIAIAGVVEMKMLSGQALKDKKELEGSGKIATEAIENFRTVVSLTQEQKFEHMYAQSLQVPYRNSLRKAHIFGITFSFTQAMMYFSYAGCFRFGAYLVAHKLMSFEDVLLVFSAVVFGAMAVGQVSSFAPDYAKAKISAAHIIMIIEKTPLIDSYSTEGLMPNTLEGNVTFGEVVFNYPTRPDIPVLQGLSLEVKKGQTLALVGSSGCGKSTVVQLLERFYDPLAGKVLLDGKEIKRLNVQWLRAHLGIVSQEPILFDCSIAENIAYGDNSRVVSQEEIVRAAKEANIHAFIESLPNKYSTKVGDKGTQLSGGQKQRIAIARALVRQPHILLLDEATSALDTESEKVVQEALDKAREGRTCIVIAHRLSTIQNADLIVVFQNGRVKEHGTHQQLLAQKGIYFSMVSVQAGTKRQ
Chain of Cyp-p450 3A4 (P08684 whole entry): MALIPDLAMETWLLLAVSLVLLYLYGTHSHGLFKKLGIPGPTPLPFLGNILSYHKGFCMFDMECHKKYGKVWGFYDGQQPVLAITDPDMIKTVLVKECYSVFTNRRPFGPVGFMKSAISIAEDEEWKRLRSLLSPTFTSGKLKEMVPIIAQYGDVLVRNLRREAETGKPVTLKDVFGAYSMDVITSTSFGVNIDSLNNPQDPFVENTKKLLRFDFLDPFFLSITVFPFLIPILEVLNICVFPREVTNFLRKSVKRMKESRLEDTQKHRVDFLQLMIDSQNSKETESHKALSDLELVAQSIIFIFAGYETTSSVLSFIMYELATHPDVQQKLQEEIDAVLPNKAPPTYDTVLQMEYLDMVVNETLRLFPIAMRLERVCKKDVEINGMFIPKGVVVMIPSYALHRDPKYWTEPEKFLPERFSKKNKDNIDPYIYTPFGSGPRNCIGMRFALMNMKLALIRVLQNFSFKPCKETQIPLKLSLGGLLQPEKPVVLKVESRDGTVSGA
Chain of Cyp-p450 1A2 (P05177 whole entry): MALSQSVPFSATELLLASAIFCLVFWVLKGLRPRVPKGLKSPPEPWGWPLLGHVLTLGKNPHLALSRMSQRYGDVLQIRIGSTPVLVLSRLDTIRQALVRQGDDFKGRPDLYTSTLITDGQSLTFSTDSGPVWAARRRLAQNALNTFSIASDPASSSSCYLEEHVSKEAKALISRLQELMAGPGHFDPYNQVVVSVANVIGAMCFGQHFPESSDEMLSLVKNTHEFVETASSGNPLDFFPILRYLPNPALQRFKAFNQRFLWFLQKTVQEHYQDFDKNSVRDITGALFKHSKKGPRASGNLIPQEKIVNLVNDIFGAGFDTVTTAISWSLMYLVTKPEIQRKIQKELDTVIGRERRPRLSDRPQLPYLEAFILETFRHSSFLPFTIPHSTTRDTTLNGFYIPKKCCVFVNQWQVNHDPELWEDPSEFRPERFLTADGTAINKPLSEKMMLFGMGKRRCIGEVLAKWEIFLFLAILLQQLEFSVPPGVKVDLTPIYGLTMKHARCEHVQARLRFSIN
Chain of Cyp-p450 2D6 (P10635 whole entry): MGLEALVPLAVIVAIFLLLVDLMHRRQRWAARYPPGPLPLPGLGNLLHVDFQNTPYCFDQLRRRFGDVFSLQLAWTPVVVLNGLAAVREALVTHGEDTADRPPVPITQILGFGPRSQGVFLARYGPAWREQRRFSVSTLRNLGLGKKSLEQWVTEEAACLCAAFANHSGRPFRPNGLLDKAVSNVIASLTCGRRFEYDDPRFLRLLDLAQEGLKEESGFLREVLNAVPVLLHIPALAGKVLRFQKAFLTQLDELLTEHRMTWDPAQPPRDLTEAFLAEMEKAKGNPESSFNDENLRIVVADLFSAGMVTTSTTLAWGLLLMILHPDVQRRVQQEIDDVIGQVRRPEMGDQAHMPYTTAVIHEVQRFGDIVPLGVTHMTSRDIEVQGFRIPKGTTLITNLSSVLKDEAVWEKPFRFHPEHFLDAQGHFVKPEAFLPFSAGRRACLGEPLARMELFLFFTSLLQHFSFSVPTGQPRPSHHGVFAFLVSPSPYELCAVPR
Chain of hERG ion channel (Q12809 whole entry): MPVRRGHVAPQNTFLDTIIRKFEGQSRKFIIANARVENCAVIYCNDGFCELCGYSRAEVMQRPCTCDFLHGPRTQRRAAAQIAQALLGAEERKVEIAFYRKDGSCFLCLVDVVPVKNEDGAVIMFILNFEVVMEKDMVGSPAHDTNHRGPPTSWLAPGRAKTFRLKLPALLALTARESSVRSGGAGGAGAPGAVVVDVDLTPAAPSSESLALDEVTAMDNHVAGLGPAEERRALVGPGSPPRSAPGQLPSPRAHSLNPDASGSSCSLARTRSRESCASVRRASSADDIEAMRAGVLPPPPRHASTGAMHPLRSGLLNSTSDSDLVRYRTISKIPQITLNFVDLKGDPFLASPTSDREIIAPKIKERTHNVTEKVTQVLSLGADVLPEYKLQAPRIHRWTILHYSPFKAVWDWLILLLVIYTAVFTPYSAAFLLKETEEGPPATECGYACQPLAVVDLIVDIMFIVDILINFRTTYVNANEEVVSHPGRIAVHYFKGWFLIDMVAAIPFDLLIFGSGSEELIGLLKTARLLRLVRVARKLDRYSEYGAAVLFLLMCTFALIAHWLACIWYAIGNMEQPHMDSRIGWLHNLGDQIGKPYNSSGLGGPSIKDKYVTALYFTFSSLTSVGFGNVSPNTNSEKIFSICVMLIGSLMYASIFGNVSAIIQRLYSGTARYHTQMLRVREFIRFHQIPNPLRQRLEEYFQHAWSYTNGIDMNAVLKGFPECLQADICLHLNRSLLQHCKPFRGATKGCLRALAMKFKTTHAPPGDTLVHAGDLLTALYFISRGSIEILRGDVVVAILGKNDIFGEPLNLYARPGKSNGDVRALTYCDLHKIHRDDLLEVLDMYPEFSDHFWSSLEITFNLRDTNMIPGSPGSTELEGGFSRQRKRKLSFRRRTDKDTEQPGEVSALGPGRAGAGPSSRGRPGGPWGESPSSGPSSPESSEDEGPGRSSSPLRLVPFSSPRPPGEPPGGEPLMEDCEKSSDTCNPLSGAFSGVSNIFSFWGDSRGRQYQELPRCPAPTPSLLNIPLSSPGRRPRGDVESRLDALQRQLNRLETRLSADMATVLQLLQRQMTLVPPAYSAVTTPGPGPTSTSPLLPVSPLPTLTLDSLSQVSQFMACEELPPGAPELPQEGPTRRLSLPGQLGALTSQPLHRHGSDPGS
Chain of Cyp-p450 2C9 (P11712 whole entry): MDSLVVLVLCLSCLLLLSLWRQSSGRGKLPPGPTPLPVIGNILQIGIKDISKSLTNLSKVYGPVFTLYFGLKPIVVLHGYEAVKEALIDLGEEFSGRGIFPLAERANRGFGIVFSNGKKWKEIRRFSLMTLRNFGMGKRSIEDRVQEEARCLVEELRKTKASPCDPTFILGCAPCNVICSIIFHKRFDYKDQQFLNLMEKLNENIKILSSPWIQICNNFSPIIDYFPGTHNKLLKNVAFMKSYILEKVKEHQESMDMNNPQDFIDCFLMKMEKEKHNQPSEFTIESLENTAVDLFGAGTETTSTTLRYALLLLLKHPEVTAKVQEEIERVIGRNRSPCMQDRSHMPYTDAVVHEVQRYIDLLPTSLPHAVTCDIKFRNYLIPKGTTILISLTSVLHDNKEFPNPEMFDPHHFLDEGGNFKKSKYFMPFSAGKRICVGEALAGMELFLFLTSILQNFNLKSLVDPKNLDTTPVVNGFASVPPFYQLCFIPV
Chain of Cyp-p450 2B6 (P20813 whole entry): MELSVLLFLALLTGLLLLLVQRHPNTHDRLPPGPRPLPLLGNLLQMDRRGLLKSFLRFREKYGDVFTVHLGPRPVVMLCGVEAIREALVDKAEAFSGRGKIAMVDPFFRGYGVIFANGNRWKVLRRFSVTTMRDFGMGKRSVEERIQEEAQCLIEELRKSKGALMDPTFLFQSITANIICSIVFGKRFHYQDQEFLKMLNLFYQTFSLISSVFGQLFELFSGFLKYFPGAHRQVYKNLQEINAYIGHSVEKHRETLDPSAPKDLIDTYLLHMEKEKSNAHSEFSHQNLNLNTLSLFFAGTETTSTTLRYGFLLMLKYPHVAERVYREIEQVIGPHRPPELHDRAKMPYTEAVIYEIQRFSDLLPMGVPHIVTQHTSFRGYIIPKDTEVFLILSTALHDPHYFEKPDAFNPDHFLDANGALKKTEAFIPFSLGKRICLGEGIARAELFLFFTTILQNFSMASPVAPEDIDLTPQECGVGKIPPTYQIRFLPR

CC12CC3CC(C(=O)N[C@H]4CC[C@@H](N)CC4)(C1)CC(c1ccccc1)(C3)C2.Cl (mixture of isomers) [Example A2]
clearance [1]: less than hepatic blood flow | IC50 (Cyp-p450 3A4; CYP Inhibition 3A4 (Midazolam)): > 100 µM | IC50 (Cyp-p450 3A4; CYP Inhibition 3A4 (Testosterone)): 28 µM | CC50 (in vitro [2]): 66 µM | SI50 (CC50/EC50) (EBOV (Mayinga)): 153 | EC50 (EBOV (Mayinga)): 0.43 µM | fraction unbound (in vitro [3]): 0.014 | IC50 (Cyp-p450 1A2): > 100 µM | CC50 (in vitro [4]): 10.1 µM | EC50 [5, 31]: 0.27 µM | IC50 (hERG ion channel): > 10 µM | EC50 ([6]; Zaire ebolavirus, Vero, 24 h): 0.024 µM | IC50 (Cyp-p450 2B6): > 100 µM | IC50 (Cyp-p450 2D6): > 100 µM | EC50 [7]: > 10 µM | IC50 (Cyp-p450 2C19): > 100 µM | solubility (physchem): > 500 µM | Papp A→B (in vitro [8]): 3.61 ×10⁻⁶ cm/s | Papp B→A (in vitro [8]): 15.6 ×10⁻⁶ cm/s | efflux ratio (in vitro [8]): 4.32 | IC50 (Cyp-p450 2C9): > 100 µM | EC50 ([9]; Zaire ebolavirus, Vero, 24 h): 0.02 µM | EC50 [10, 31]: 3.1 µM | Vd (in vivo): 14 L/kg | bioavailability (in vivo): 72% | half-life (in vivo; 10 mg/kg): 7 h | AUC(0-inf) (in vivo; iv, 1 mg/kg): 561 ng·h/mL | AUC(0-t) (in vivo; iv, 1 mg/kg): 539 ± 23 ng·h/mL | Cmax (in vivo; iv, 1 mg/kg): 129 ± 40 ng/mL | Tmax (in vivo; iv, 1 mg/kg): 0.083 h | Vd (in vivo; iv, 1 mg/kg): 13.9 L/kg | clearance (in vivo; iv, 1 mg/kg): 29.7 mL/min/kg | half-life (in vivo; iv, 1 mg/kg): 5.4 h | AUC(0-inf) (in vivo; po, 10 mg/kg): 4040 ng·h/mL | AUC(0-t) (in vivo; po, 10 mg/kg): 3590 ± 576 ng·h/mL | Cmax (in vivo; po, 10 mg/kg): 239 ± 46 ng/mL | Tmax (in vivo; po, 10 mg/kg): 6 h | half-life (in vivo; po, 10 mg/kg): 7.1 h | Turbidimetric solubility [11]: >500 µM | P-gp substrate ID Caco-2 Permeability (+Verapamil) Paap Mean A > B (P-gp): 8.47 10^−6 cm s^−1 | P-gp substrate ID Caco-2 Permeability (+Verapamil) Paap Mean B > A (P-gp): 7.45 10^−6 cm s^−1 | fraction unbound (in vitro [12]): 0.025 | EC50 [13, 31]: 0.09 µM

CCC12CC3CC(C(=O)N[C@@H]4CCNC[C@H]4F)(C1)CC(c1ccccc1)(C3)C2 (mixture of isomers) [Example A18]
CC50 (Vero cells): 9.8 µM | EC50 [5]: 0.303 µM | EC50 [6]: 0.03 µM | EC50 [9]: 0.2 µM | EC50 [10]: 3.5 µM | EC50 [13]: 0.203 µM

CCC12CC3CC(C(=O)N4CCC(N)CC4)(C1)CC(c1ccccc1)(C3)C2 (racemic) [Example A32]
EC50 (Ebola Zaire [14]): 1.33 µM | CC50 (in vitro [4]): 6 µM | EC50 [5, 31]: 0.215 µM | EC50 ([6]; Zaire ebolavirus, Vero, 24 h): 0.065 µM | Ebola Zaire SI (CC50/EC50) (Ebola Zaire [15]): 64 | EC50 ([9]; Zaire ebolavirus, Vero, 24 h): 0.042 µM | EC50 [10, 31]: 7.6 µM | EC50 [13, 31]: 0.09 µM

CCC12CC3CC(C(=O)NC4CCNCC4(C)C)(C1)CC(c1ccccc1)(C3)C2 (racemic) [Example A52]
CC50 (Vero cells): 5.7 µM | EC50 [5]: 0.4 µM | EC50 [6]: 0.03 µM | EC50 [9]: 0.038 µM | EC50 [10]: 1.2 µM | EC50 [13]: 0.168 µM

C[C@@]12CC3CC(C(=O)NC4CCNCC4)(CC(c4ccccc4)(C3)C1)C2 [Example B1]
EC50 (Ebola Zaire [14]): > 3.2 µM | EC90 (Ebola Zaire [16]): 2.1 µM | Liver Microsome Stability % Remaining after 60 Minutes, Human [17]: 81% | EC50 (Ebola Zaire [18]): 0.64 µM | Ebola Zaire SI (CC50/EC90) (Ebola Zaire [19]): >48 | CC50 (in vitro [4]): 12.3 µM | EC50 [5, 31]: 0.25 µM | EC50 ([6]; Zaire ebolavirus, Vero, 24 h): 0.01 µM | Liver Microsome Stability % Remaining after 60 Minutes, Mouse [20]: 87% | EC50 (Sudan Gulu [21]): 0.12 µM | Liver Microsome Stability % Remaining after 60 Minutes, Monkey [22]: 83% | Ebola Zaire SI (CC50/EC50) (Ebola Zaire [23]): 51 | EC50 ([9]; Zaire ebolavirus, Vero, 24 h): 0.034 µM | EC50 [10, 31]: > 3 µM | Sudan Gulu SI (CC50/EC50) (Sudan Gulu [24]): 285 | EC50 [13, 31]: 0.238 µM

C[C@H]1C[C@@H](NC(=O)C23CC4C[C@@](C)(C2)C[C@](c2ccccc2)(C4)C3)CCN1 [Example B4]
EC90 (Ebola Zaire [16]): 2.9 µM | Liver Microsome Stability % Remaining after 60 Minutes, Human [17]: 82% | EC50 (Ebola Zaire [18]): 0.62 µM | Ebola Zaire SI (CC50/EC90) (Ebola Zaire [19]): >35 | CC50 (in vitro [4]): 22.5 µM | EC50 [5]: 0.166 µM | Liver Microsome Stability % Remaining after 60 Minutes, Mouse [20]: 92% | EC50 (Sudan Gulu [21]): 0.15 µM | Liver Microsome Stability % Remaining after 60 Minutes, Monkey [22]: 54% | Ebola Zaire SI (CC50/EC50) (Ebola Zaire [23]): 54 | EC50 [9]: 0.013 µM | EC50 [10, 31]: > 3 µM | Sudan Gulu SI (CC50/EC50) (Sudan Gulu [24]): 155 | EC50 [13]: 0.104 µM

C[C@]12CC3CC(C(=O)N4CCC(N)CC4)(C1)C[C@@](c1ccccc1)(C3)C2 [Example B7]
EC50 (Ebola Zaire [14]): 0.88 µM | EC50 (Sudan Gulu [25]): 0.36 µM | Liver Microsome Stability % Remaining after 60 Minutes, Human [17]: 86% | EC50 (Ebola Zaire [18]): 1.9 µM | CC50 (in vitro [4]): 31 µM | EC50 [5, 31]: 0.116 µM | EC50 ([6]; Zaire ebolavirus, Vero, 24 h): 0.04 µM | Liver Microsome Stability % Remaining after 60 Minutes, Guinea Pig [26]: 72% | Liver Microsome Stability % Remaining after 60 Minutes, Mouse [20]: 77% | EC50 (Sudan Gulu [21]): 0.17 µM | Liver Microsome Stability % Remaining after 60 Minutes, Monkey [22]: 53% | EC50 ([9]; Zaire ebolavirus, Vero, 24 h): 0.045 µM | EC50 [10, 31]: 8 µM | EC50 [13, 31]: 0.072 µM

CC1(C)CN(C(=O)C23CC4C[C@@](C)(C2)C[C@](c2ccccc2)(C4)C3)CCC1N (stereo partly drawn) [Example B8]
Sudan Gulu SI (CC50/EC50) (Sudan Gulu [27]): 128 | Liver Microsome Stability % Remaining after 60 Minutes, Human [17]: 76% | CC50 (in vitro [4]): 12.4 µM | EC50 [5, 31]: 0.058 µM | EC50 ([6]; Zaire ebolavirus, Vero, 24 h): 0.05 µM | Liver Microsome Stability % Remaining after 60 Minutes, Guinea Pig [26]: 56% | EC50 (Sudan Gulu [28]): 0.13 µM | Liver Microsome Stability % Remaining after 60 Minutes, Mouse [20]: 47% | Liver Microsome Stability % Remaining after 60 Minutes, Monkey [22]: 30% | EC50 ([9]; Zaire ebolavirus, Vero, 24 h): 0.012 µM | EC50 [13, 31]: 0.084 µM

C[C@H]1C[C@@H](NC(=O)C23CC4C[C@@](C)(C2)C[C@](c2ccccc2)(C4)C3)CCN1 [Example B15]
CC50 (Vero cells): 14.8 µM | EC50 [5]: 0.61 µM | EC50 [9]: 0.035 µM | EC50 [13]: 0.21 µM

NC(=O)c1nc(F)c[nH]c1=O [favipiravir, reference compound]
CC50 (in vitro [2]): > 1000 µM | SI50 (CC50/EC50) (EBOV (Mayinga)): >59 | EC50 (EBOV (Mayinga)): 17 µM | EC50 (native EBOV virus): 67 µM | half-life [29]: 1.8 h | half-life in humans [30]: 1 to 4 h | drop in viral load (Ebola virus infection): 3-4 log
